Test system: 317291-083-R-J1-PDC complex spheroids, viability
Assay: Anticancer human tumor 317291-083-R-J1-PDC patient-derived soft tissue sarcoma cell line growth inhibition [GQUAD]
Details: for IC50: curve of first compound; for viability, T/C: stronger effect = lower value; active means viability on the fitted dose curve at most 10% of control; inactive means the rest
Outline: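 Multi-cell-type spheroids of tumor cells with HUVEC and mesenchymal stem cells, treated with drug combinations. Concentrations descend in half-log steps from near clinical Cmax, or from 10 microM where Cmax is unknown; viability read-out.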

[1] = second compound 0.0316 µM, first compound 0.0316 µM
[2] = second compound 0.0316 µM, first compound 0.1 µM
[3] = second compound 0.0316 µM, first compound 0.316 µM
[4] = second compound 0.0316 µM, first compound 1 µM
[5] = second compound 0.0316 µM, first compound 3.16 µM
[6] = second compound 0.0316 µM, first compound 10 µM
[7] = second compound 0.1 µM, first compound 0.0316 µM
[8] = second compound 0.1 µM, first compound 0.1 µM
[9] = second compound 0.1 µM, first compound 0.316 µM
[10] = second compound 0.1 µM, first compound 1 µM
[11] = second compound 0.1 µM, first compound 3.16 µM
[12] = second compound 0.1 µM, first compound 10 µM
[13] = second compound 0.316 µM, first compound 0.0316 µM
[14] = second compound 0.316 µM, first compound 0.1 µM
[15] = second compound 0.316 µM, first compound 0.316 µM
[16] = second compound 0.316 µM, first compound 1 µM
[17] = second compound 0.316 µM, first compound 3.16 µM
[18] = second compound 0.316 µM, first compound 10 µM
[19] = second compound 1 µM, first compound 0.0316 µM
[20] = second compound 1 µM, first compound 0.1 µM
[21] = second compound 1 µM, first compound 0.316 µM
[22] = second compound 1 µM, first compound 1 µM
[23] = second compound 1 µM, first compound 3.16 µM
[24] = second compound 1 µM, first compound 10 µM
[25] = second compound 3.16 µM, first compound 0.0316 µM
[26] = second compound 3.16 µM, first compound 0.1 µM
[27] = second compound 3.16 µM, first compound 0.316 µM
[28] = second compound 3.16 µM, first compound 1 µM
[29] = second compound 3.16 µM, first compound 3.16 µM
[30] = second compound 3.16 µM, first compound 10 µM
[31] = second compound 10 µM, first compound 0.0316 µM
[32] = second compound 10 µM, first compound 0.1 µM
[33] = second compound 10 µM, first compound 0.316 µM
[34] = second compound 10 µM, first compound 1 µM
[35] = second compound 10 µM, first compound 3.16 µM
[36] = second compound 10 µM, first compound 10 µM
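Further: spheroids exposed to compounds for one week before readout.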
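Wherever viability, T/C is given: percent viability relative to DMSO vehicle wells taken as 100%.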

COc1cc(C2c3cc4c(cc3C(OC3OC5COC(C)OC5C(O)C3O)C3COC(=O)C23)OCO4)cc(OC)c1O (stereo unspecified) + Cc1cnc(CNC(=O)c2c(=O)c3ccc(N4CCCN(C)CC4)nc3n3c2sc2ccccc23)cn1
active: viability, T/C [12] 9.12% | viability, T/C [24] 8.25% | viability, T/C [29] 9.56% | viability, T/C [30] 3.72% | viability, T/C [34] 10.8% | viability, T/C [35] 5.33% | viability, T/C [36] 11.2%
inactive: viability, T/C [1] 81.6% | viability, T/C [2] 68.3% | viability, T/C [3] 41.4% | viability, T/C [4] 27.7% | viability, T/C [5] 15.4% | viability, T/C [6] 11.6% | viability, T/C [7] 57.5% | viability, T/C [8] 46.3% | viability, T/C [9] 35.3% | viability, T/C [10] 24.9% | viability, T/C [11] 15.6% | viability, T/C [13] 70.5% | viability, T/C [14] 39.3% | viability, T/C [15] 19.3% | viability, T/C [16] 18.8% | viability, T/C [17] 16.2% | viability, T/C [18] 10.7% | viability, T/C [19] 35.9% | viability, T/C [20] 28.4% | viability, T/C [21] 22.7% | viability, T/C [22] 18.7% | viability, T/C [23] 9.1% | viability, T/C [25] 22.9% | viability, T/C [26] 41.3% | viability, T/C [27] 14.7% | viability, T/C [28] 13.1% | viability, T/C [31] 28.6% | viability, T/C [32] 14.6% | viability, T/C [33] 9.56%
233 nM: IC50 (second compound 0.0316 µM)
< 31.6 nM: IC50 (second compound 1 µM) | IC50 (second compound 3.16 µM) | IC50 (second compound 10 µM)
66.7 nM: IC50 (second compound 0.316 µM)
69.2 nM: IC50 (second compound 0.1 µM)

COc1cccc2c1C(=O)c1c(O)c3c(c(O)c1C2=O)CC(O)(C(=O)CO)CC3OC1CC(N)C(O)C(C)O1 (stereo unspecified) + Cc1cnc(CNC(=O)c2c(=O)c3ccc(N4CCCN(C)CC4)nc3n3c2sc2ccccc23)cn1
47.1 nM: IC50 (second compound 0.1 µM)
72.5 nM: IC50 (second compound 0.0316 µM)
< 31.6 nM: IC50 (second compound 0.316 µM) | IC50 (second compound 1 µM) | IC50 (second compound 3.16 µM) | IC50 (second compound 10 µM)
inactive: viability, T/C [1] 84% | viability, T/C [2] 34% | viability, T/C [3] 21.1% | viability, T/C [7] 62.7% | viability, T/C [8] 24% | viability, T/C [9] 18.2% | viability, T/C [13] 45.8% | viability, T/C [14] 35% | viability, T/C [15] 22.1% | viability, T/C [19] 38.1% | viability, T/C [20] 18.4% | viability, T/C [21] 15.9% | viability, T/C [25] 18.5% | viability, T/C [26] 15.8% | viability, T/C [31] 16.5% | viability, T/C [32] 15.6% | viability, T/C [33] 20.6% | viability, T/C [34] 20.7%
active: viability, T/C [4] 10.7% | viability, T/C [5] 1.84% | viability, T/C [6] 4.21% | viability, T/C [10] 8.39% | viability, T/C [11] 3.34% | viability, T/C [12] 2.66% | viability, T/C [16] 6.47% | viability, T/C [17] 2.05% | viability, T/C [18] 2.05% | viability, T/C [22] 12.2% | viability, T/C [23] 1.05% | viability, T/C [24] 1.27% | viability, T/C [27] 11.6% | viability, T/C [28] 0.53% | viability, T/C [29] 0.36% | viability, T/C [30] 1.14% | viability, T/C [35] 0.34% | viability, T/C [36] 0.34%

Nc1ccn(C2OC(CO)C(O)C2(F)F)c(=O)n1 (stereo unspecified) + Cc1cnc(CNC(=O)c2c(=O)c3ccc(N4CCCN(C)CC4)nc3n3c2sc2ccccc23)cn1
inactive: viability, T/C [1] 53.1% | viability, T/C [2] 20.4% | viability, T/C [3] 17.6% | viability, T/C [4] 11.2% | viability, T/C [7] 43.9% | viability, T/C [8] 39.9% | viability, T/C [9] 11.6% | viability, T/C [10] 15.9% | viability, T/C [11] 8.93% | viability, T/C [12] 7.45% | viability, T/C [13] 43.4% | viability, T/C [14] 19.6% | viability, T/C [15] 11.2% | viability, T/C [16] 8.54% | viability, T/C [17] 14.6% | viability, T/C [18] 8.2% | viability, T/C [19] 31.5% | viability, T/C [20] 21.2% | viability, T/C [21] 26.3% | viability, T/C [22] 6.79% | viability, T/C [25] 19% | viability, T/C [26] 17.5% | viability, T/C [27] 9.09% | viability, T/C [31] 16.9% | viability, T/C [32] 24.9% | viability, T/C [33] 7%
34.7 nM: IC50 (second compound 0.0316 µM)
< 31.6 nM: IC50 (second compound 0.1 µM) | IC50 (second compound 0.316 µM) | IC50 (second compound 1 µM) | IC50 (second compound 3.16 µM) | IC50 (second compound 10 µM)
active: viability, T/C [5] 8.79% | viability, T/C [6] 6.85% | viability, T/C [23] 8.1% | viability, T/C [24] 7.55% | viability, T/C [28] 7.43% | viability, T/C [29] 5.04% | viability, T/C [30] 5.88% | viability, T/C [34] 8.35% | viability, T/C [35] 5.09% | viability, T/C [36] 8.27%

Reference: PubChem BioAssay AID2060497 (Molecular Pharmacology Branch, DTP, NCI, 2025)
